# Results published in patent US11767341B2, “Lincosamide antibiotics and uses thereof” (President and Fellows of Harvard College, priority 2017, dated 2023).
# Where two headings read alike, the source gives them in different places.
# How the values were obtained:
# Experiment in all cases: MIC determination
# Assay type in all cases: cell-based
# [1] = test system: E. coli MP-74 LptD mutant; settings: Escherichia coli
# S. aureus BAA 977 iErmA = settings: Staphylococcus aureus, BAA977
# S. aureus ATCC 29213 = settings: Staphylococcus aureus, ATCC29213, S. aureus ATCC 29213; read-out: MIC
# [2] = test system: S. pyogenes MMX 946 Macrolide-Resistant; settings: Streptococcus pyogenes, read-out: MIC
# S. pneumoniae ATCC 49619 = settings: Streptococcus pneumoniae, ATCC49619; S. pneumoniae ATCC 49619; read-out: MIC
# [3] = test system: S. pneumoniae MMX 3031 cMefA; settings: Streptococcus pneumoniae, MMX3031CMEFA
# [4] = test system: S. aureus MP-549 msr(a) USA 300; settings: Staphylococcus aureus, USA300, S. aureus MP-549 msr(a) USA 300
# K. pneumoniae ATCC 10031 = settings: Klebsiella pneumoniae, ATCC10031
# S. pyogenes ATCC 19615 = settings: Streptococcus pyogenes, ATCC19615; S. pyogenes ATCC 19615; read-out: MIC
# E. faecalis ATCC 29212 = settings: Enterococcus faecalis, ATCC29212, read-out: MIC
# E. coli MP-9 ΔTolC = settings: Escherichia coli
# E. coli ATCC 25922 = settings: Escherichia coli, ATCC25922, E. coli ATCC 25922; read-out: MIC
# S. aureus MMX 3035 cErmA = settings: Staphylococcus aureus, MMX3035CERMA; S. aureus MMX 3035 cErmA; read-out: MIC
# [5] = test system: S. pneumoniae MMX 3028 cErmB; settings: Streptococcus pneumoniae, MMX3028CERMB
# [6] = test system: E. faecalis MMX 847 Macrolide-Resistant; settings: Enterococcus faecalis, read-out: MIC
# H. influenzae ATCC 49247 = settings: Haemophilus influenzae, ATCC49247
# [7] = S. pyogenes MMX 946 Macrolide-Resistant (MacRes)
# [8] = K. pneumoniae ATCC 10031, read-out: MIC
# [9] = S. pneumoniae MMX 3028 cErmB, read-out: MIC
# [10] = E. faecalis MMX 847 Macrolide-Resistant (MacRes)
# [11] = H. influenzae ATCC 49247, read-out: MIC
smiles,measurement,setting,value
CSC1O[C@H]([C@H](NC(=O)[C@H]2NC[C@@H]3CC=CCO[C@H]32)[C@H](C)Sc2ccc(-c3cccnc3)cc2)C(O)[C@@H](O)[C@H]1O (some centres unmarked) [FSA-213061],MIC,[1],8 µg/mL
same,MIC,S. aureus BAA 977 iErmA,0.25 µg/mL
same,MIC,S. aureus ATCC 29213,0.25 µg/mL
same,MIC,[2]; [7],4 µg/mL
same,MIC,S. pneumoniae ATCC 49619,≤ 0.06 µg/mL
same,MIC,[3],0.125 µg/mL
same,MIC,[4],0.5 µg/mL
same,MIC,K. pneumoniae ATCC 10031; [8],32 µg/mL
same,MIC,S. pyogenes ATCC 19615,≤ 0.06 µg/mL
same,MIC,E. faecalis ATCC 29212,16 µg/mL
same,MIC,E. coli MP-9 ΔTolC,8 µg/mL
same,MIC,E. coli ATCC 25922,> 64 µg/mL
same,MIC,S. aureus MMX 3035 cErmA,64 µg/mL
same,MIC,[5]; [9],8 µg/mL
same,MIC,[6]; [10],> 64 µg/mL
CSC1O[C@H]([C@H](NC(=O)[C@H]2NC[C@@H]3C[C@@H](CCc4ccccc4)CCO[C@H]32)[C@H](C)Cl)C(O)[C@@H](O)[C@H]1O (some centres unmarked) [FSA-510021],MIC,[1],4 µg/mL
same,MIC,S. aureus BAA 977 iErmA,0.125 µg/mL
same,MIC,S. aureus ATCC 29213,0.125 µg/mL
same,MIC,[2]; S. pyogenes MMX 946 MacRes,1 µg/mL
same,MIC,S. pneumoniae ATCC 49619,≤ 0.06 µg/mL
same,MIC,[3],≤ 0.06 µg/mL
same,MIC,[4],0.125 µg/mL
same,MIC,K. pneumoniae ATCC 10031; [8],4 µg/mL
same,MIC,S. pyogenes ATCC 19615,≤ 0.06 µg/mL
same,MIC,E. faecalis ATCC 29212,0.25 µg/mL
same,MIC,E. coli MP-9 ΔTolC,4 µg/mL
same,MIC,E. coli ATCC 25922,64 µg/mL
same,MIC,S. aureus MMX 3035 cErmA,4 µg/mL
same,MIC,[5]; [9],4 µg/mL
same,MIC,H. influenzae ATCC 49247; [11],1 µg/mL
same,MIC,[6]; E. faecalis MMX 847 MacRes,4 µg/mL
CSC1O[C@H]([C@H](NC(=O)[C@H]2NC[C@@H]3C[C@@H](CCc4cccc(F)c4)CCO[C@H]32)[C@H](C)Cl)C(O)[C@@H](O)[C@H]1O (some centres unmarked) [FSA-510022],MIC,[1],4 µg/mL
same,MIC,S. aureus BAA 977 iErmA,0.12 µg/mL
same,MIC,S. aureus ATCC 29213,0.12 µg/mL
same,MIC,[2]; S. pyogenes MMX 946 MacRes,0.5 µg/mL
same,MIC,S. pneumoniae ATCC 49619,≤ 0.06 µg/mL
same,MIC,[3],≤ 0.06 µg/mL
same,MIC,[4],0.12 µg/mL
same,MIC,K. pneumoniae ATCC 10031; [8],2 µg/mL
same,MIC,S. pyogenes ATCC 19615,≤ 0.06 µg/mL
same,MIC,E. faecalis ATCC 29212,0.25 µg/mL
same,MIC,E. coli MP-9 ΔTolC,4 µg/mL
same,MIC,E. coli ATCC 25922,32 µg/mL
same,MIC,S. aureus MMX 3035 cErmA,2 µg/mL
same,MIC,[5]; [9],4 µg/mL
same,MIC,H. influenzae ATCC 49247; [11],1 µg/mL
same,MIC,[6]; E. faecalis MMX 847 MacRes,2 µg/mL
CSC1O[C@H]([C@H](NC(=O)[C@H]2NC[C@@H]3C=C(c4cccc(F)c4)CCO[C@@H]23)[C@H](C)Cl)C(O)[C@@H](O)[C@H]1O (some centres unmarked) [FSA-511071],MIC,[1],64 µg/mL
same,MIC,S. aureus BAA 977 iErmA,2 µg/mL
same,MIC,S. aureus ATCC 29213,7 µg/mL
same,MIC,[2]; [7],> 64 µg/mL
same,MIC,S. pneumoniae ATCC 49619,0.25 µg/mL
same,MIC,[3],0.5 µg/mL
same,MIC,[4],1 µg/mL
same,MIC,K. pneumoniae ATCC 10031,64 µg/mL
same,MIC,S. pyogenes ATCC 19615,0.5 µg/mL
same,MIC,E. faecalis ATCC 29212,4 µg/mL
same,MIC,E. coli MP-9 ΔTolC,64 µg/mL
same,MIC,E. coli ATCC 25922,> 64 µg/mL
same,MIC,S. aureus MMX 3035 cErmA,> 64 µg/mL
same,MIC,[5],64 µg/mL
same,MIC,H. influenzae ATCC 49247; [11],> 64 µg/mL
same,MIC,[6]; [10],> 64 µg/mL
CSC1O[C@H]([C@H](NC(=O)[C@H]2NC[C@@H]3C=C(c4ccc(F)cc4F)CCO[C@@H]23)[C@H](C)Cl)C(O)[C@@H](O)[C@H]1O (some centres unmarked) [FSA-511072],MIC,[1],64 µg/mL
same,MIC,S. aureus BAA 977 iErmA,1 µg/mL
same,MIC,S. aureus ATCC 29213,1 µg/mL
same,MIC,[2]; [7],> 64 µg/mL
same,MIC,S. pneumoniae ATCC 49619,0.12 µg/mL
same,MIC,[3],0.12 µg/mL
same,MIC,[4],1 µg/mL
same,MIC,K. pneumoniae ATCC 10031,32 µg/mL
same,MIC,S. pyogenes ATCC 19615,0.25 µg/mL
same,MIC,E. faecalis ATCC 29212,4 µg/mL
same,MIC,E. coli MP-9 ΔTolC,32 µg/mL
same,MIC,E. coli ATCC 25922,> 64 µg/mL
same,MIC,S. aureus MMX 3035 cErmA,> 64 µg/mL
same,MIC,[5],64 µg/mL
same,MIC,H. influenzae ATCC 49247; [11],> 64 µg/mL
same,MIC,[6]; [10],> 64 µg/mL
CSC1O[C@H]([C@H](NC(=O)[C@H]2NC[C@@H]3C=C(c4ccccc4F)CCO[C@@H]23)[C@H](C)Cl)C(O)[C@@H](O)[C@H]1O (some centres unmarked) [FSA-511073],MIC,[1],64 µg/mL
same,MIC,S. aureus BAA 977 iErmA,1 µg/mL
same,MIC,S. aureus ATCC 29213,1 µg/mL
same,MIC,[2]; [7],> 64 µg/mL
same,MIC,S. pneumoniae ATCC 49619,0.12 µg/mL
same,MIC,[3],0.12 µg/mL
same,MIC,[4],1 µg/mL
same,MIC,K. pneumoniae ATCC 10031,64 µg/mL
same,MIC,S. pyogenes ATCC 19615,0.25 µg/mL
same,MIC,E. faecalis ATCC 29212,4 µg/mL
same,MIC,E. coli MP-9 ΔTolC,64 µg/mL
same,MIC,E. coli ATCC 25922,> 64 µg/mL
same,MIC,S. aureus MMX 3035 cErmA,> 64 µg/mL
same,MIC,[5],64 µg/mL
same,MIC,H. influenzae ATCC 49247; [11],> 64 µg/mL
same,MIC,[6]; [10],> 64 µg/mL
CSC1O[C@H]([C@H](NC(=O)[C@H]2NC[C@@H]3C=C(c4cc(F)cc(F)c4)CCO[C@@H]23)[C@H](C)Cl)C(O)[C@@H](O)[C@H]1O (some centres unmarked) [FSA-511074],MIC,[1],64 µg/mL
same,MIC,S. aureus BAA 977 iErmA,2 µg/mL
same,MIC,S. aureus ATCC 29213,2 µg/mL
same,MIC,[2]; [7],> 64 µg/mL
same,MIC,S. pneumoniae ATCC 49619,0.25 µg/mL
same,MIC,[3],0.25 µg/mL
same,MIC,[4],1 µg/mL
same,MIC,K. pneumoniae ATCC 10031,64 µg/mL
same,MIC,S. pyogenes ATCC 19615,0.5 µg/mL
same,MIC,E. faecalis ATCC 29212,4 µg/mL
same,MIC,E. coli MP-9 ΔTolC,64 µg/mL
same,MIC,E. coli ATCC 25922,> 64 µg/mL
same,MIC,S. aureus MMX 3035 cErmA,> 64 µg/mL
same,MIC,[5],64 µg/mL
same,MIC,H. influenzae ATCC 49247; [11],> 64 µg/mL
same,MIC,[6]; [10],> 64 µg/mL
CSC1O[C@H]([C@H](NC(=O)[C@H]2NC[C@@H]3C[C@@H](c4cccc(F)c4)CCO[C@H]32)[C@H](C)Cl)C(O)[C@@H](O)[C@H]1O (some centres unmarked) [FSA-511077],MIC,[1],16 µg/mL
same,MIC,S. aureus BAA 977 iErmA,0.25 µg/mL
same,MIC,S. aureus ATCC 29213,0.25 µg/mL
same,MIC,[2]; S. pyogenes MMX 946 MacRes,32 µg/mL
same,MIC,S. pneumoniae ATCC 49619,≤ 0.06 µg/mL
same,MIC,[3],≤ 0.06 µg/mL
same,MIC,[4],0.25 µg/mL
same,MIC,K. pneumoniae ATCC 10031; [8],8 µg/mL
same,MIC,S. pyogenes ATCC 19615,≤ 0.06 µg/mL
same,MIC,E. faecalis ATCC 29212,0.5 µg/mL
same,MIC,E. coli MP-9 ΔTolC,4 µg/mL
same,MIC,E. coli ATCC 25922,> 64 µg/mL
same,MIC,S. aureus MMX 3035 cErmA,> 64 µg/mL
same,MIC,[5]; [9],8 µg/mL
same,MIC,H. influenzae ATCC 49247,16 µg/mL
same,MIC,[6]; E. faecalis MMX 847 MacRes,64 µg/mL
CSC1O[C@H]([C@H](NC(=O)[C@H]2NC[C@@H]3C[C@@H](c4ccc(F)cc4F)CCO[C@H]32)[C@H](C)Cl)C(O)[C@@H](O)[C@H]1O (some centres unmarked) [FSA-511078],MIC,[1],8 µg/mL
same,MIC,S. aureus BAA 977 iErmA,0.25 µg/mL
same,MIC,S. aureus ATCC 29213,0.25 µg/mL
same,MIC,[2]; S. pyogenes MMX 946 MacRes,16 µg/mL
same,MIC,S. pneumoniae ATCC 49619,≤ 0.06 µg/mL
same,MIC,[3],≤ 0.06 µg/mL
same,MIC,[4],0.12 µg/mL
same,MIC,K. pneumoniae ATCC 10031; [8],8 µg/mL
same,MIC,S. pyogenes ATCC 19615,≤ 0.06 µg/mL
same,MIC,E. faecalis ATCC 29212,0.25 µg/mL
same,MIC,E. coli MP-9 ΔTolC,2 µg/mL
same,MIC,E. coli ATCC 25922,> 64 µg/mL
same,MIC,S. aureus MMX 3035 cErmA,> 64 µg/mL
same,MIC,[5]; [9],4 µg/mL
same,MIC,H. influenzae ATCC 49247; [11],16 µg/mL
same,MIC,[6]; E. faecalis MMX 847 MacRes,64 µg/mL
